Values after ≈ are worked out from the molar mass of the structure shown.
tested on: Mycobacterium tuberculosis; assay: Antimycobacterial activity against isoniazid-resistant Mycobacterium tuberculosis by two fold agar dilution method; type: functional

Q: With `Cc1c(NCc2nnc(Nc3ccc(Cl)cc3)o2)c(=O)n(-c2ccccc2)n1C` as the compound, how does the MIC read?
A: The MIC was 10 µg/mL (≈ 24.3 µM).

Q: With `Cc1c(NCc2nnc(Nc3ccc(F)cc3)o2)c(=O)n(-c2ccccc2)n1C` as the compound, how does the MIC read?
A: Its MIC is 3.12 µg/mL (≈ 7.91 µM).

Q: `Cc1c(NCc2nnc(Nc3ccccc3Cl)o2)c(=O)n(-c2ccccc2)n1C` was tested. Which MIC did it give?
A: Its MIC is over 12.5 µg/mL.

Q: `Cc1c(NCc2nnc(Nc3ccc(S(N)(=O)=O)cc3)o2)c(=O)n(-c2ccccc2)n1C` was tested. Which MIC did it give?
A: Its MIC is 12.5 µg/mL (≈ 27.4 µM).

Q: Which MIC does the source give for `Cc1c(Cl)cccc1Nc1nnc(CNc2c(C)n(C)n(-c3ccccc3)c2=O)o1` here?
A: The MIC was over 12.5 µg/mL.

Q: `Cc1c(NCc2nnc(Nc3ccc([N+](=O)[O-])cc3)o2)c(=O)n(-c2ccccc2)n1C` was tested. Which MIC did it give?
A: Its MIC is 6.25 µg/mL (≈ 14.8 µM).

Q: Which MIC does the source give for `Cc1c(NCc2nnc(Nc3ccccc3)o2)c(=O)n(-c2ccccc2)n1C` here?
A: The MIC was over 12.5 µg/mL.

Q: `Cc1cccc(C)c1Nc1nnc(CNc2c(C)n(C)n(-c3ccccc3)c2=O)o1` was tested. Which MIC did it give?
A: Its MIC is over 12.5 µg/mL.

Q: Which MIC does the source give for `Cc1c(NCc2nnc(Nc3ccc(Br)cc3)o2)c(=O)n(-c2ccccc2)n1C` here?
A: Its MIC is 12.5 µg/mL (≈ 27.5 µM).

Q: For `NNC(=O)c1ccncc1` [ISONIAZID], which MIC is on record?
A: The MIC was 12.5 µg/mL (≈ 91.1 µM).

Q: How did the MIC turn out when `Cc1c(NCc2nnc(Nc3ccc(F)c(Cl)c3)o2)c(=O)n(-c2ccccc2)n1C` was run?
A: Its MIC is 10 µg/mL (≈ 23.3 µM).

Q: With `Cc1ccc(Nc2nnc(CNc3c(C)n(C)n(-c4ccccc4)c3=O)o2)c(C)c1` as the compound, how does the MIC read?
A: Its MIC is over 12.5 µg/mL.

Q: How did the MIC turn out when `Cc1ccc(Nc2nnc(CNc3c(C)n(C)n(-c4ccccc4)c3=O)o2)cc1` was run?
A: The MIC was over 12.5 µg/mL.

Q: `COc1ccc(Nc2nnc(CNc3c(C)n(C)n(-c4ccccc4)c3=O)o2)cc1` was tested. Which MIC did it give?
A: The MIC was over 12.5 µg/mL.

Q: How did the MIC turn out when `Cc1c(NCc2nnc(Nc3ccc(O)cc3)o2)c(=O)n(-c2ccccc2)n1C` was run?
A: The MIC was 12.5 µg/mL (≈ 31.9 µM).

tested on: Mycobacterium tuberculosis; assay: Ratio of MIC for isoniazid-resistant Mycobacterium tuberculosis to MIC for Mycobacterium tuberculosis H37Rv; type: functional

Q: For `Cc1c(NCc2nnc(Nc3ccc(F)cc3)o2)c(=O)n(-c2ccccc2)n1C`, which Ratio is on record?
A: The Ratio was 4.

Reference: ChEMBL document CHEMBL1938310, “Discovery of novel antitubercular 1,5-dimethyl-2-phenyl-4-([5-(arylamino)-1,3,4-oxadiazol-2-yl]methylamino)-1,2-dihydro-3H-pyrazol-3-one analogues” (Bioorg Med Chem Lett, 2012)
